Test results as given in US7820379B2, “Process for high throughput screening of CpG-based immuno-agonist/antagonist” (Coley Pharmaceutical GmbH, priority 2000, dated 2010).

T1: murine TLR9 (Mus musculus, UniProt Q9EQU3, L378S/Q579H/T325N/T573A/T867A)
T1 construct: additional primers were designed for amplification of the complete mouse TLR9 cDNA; expressed in transfected cells
T1 sequence (Q9EQU3 26-1032 T325N/L378S/T573A/Q579H/T867A): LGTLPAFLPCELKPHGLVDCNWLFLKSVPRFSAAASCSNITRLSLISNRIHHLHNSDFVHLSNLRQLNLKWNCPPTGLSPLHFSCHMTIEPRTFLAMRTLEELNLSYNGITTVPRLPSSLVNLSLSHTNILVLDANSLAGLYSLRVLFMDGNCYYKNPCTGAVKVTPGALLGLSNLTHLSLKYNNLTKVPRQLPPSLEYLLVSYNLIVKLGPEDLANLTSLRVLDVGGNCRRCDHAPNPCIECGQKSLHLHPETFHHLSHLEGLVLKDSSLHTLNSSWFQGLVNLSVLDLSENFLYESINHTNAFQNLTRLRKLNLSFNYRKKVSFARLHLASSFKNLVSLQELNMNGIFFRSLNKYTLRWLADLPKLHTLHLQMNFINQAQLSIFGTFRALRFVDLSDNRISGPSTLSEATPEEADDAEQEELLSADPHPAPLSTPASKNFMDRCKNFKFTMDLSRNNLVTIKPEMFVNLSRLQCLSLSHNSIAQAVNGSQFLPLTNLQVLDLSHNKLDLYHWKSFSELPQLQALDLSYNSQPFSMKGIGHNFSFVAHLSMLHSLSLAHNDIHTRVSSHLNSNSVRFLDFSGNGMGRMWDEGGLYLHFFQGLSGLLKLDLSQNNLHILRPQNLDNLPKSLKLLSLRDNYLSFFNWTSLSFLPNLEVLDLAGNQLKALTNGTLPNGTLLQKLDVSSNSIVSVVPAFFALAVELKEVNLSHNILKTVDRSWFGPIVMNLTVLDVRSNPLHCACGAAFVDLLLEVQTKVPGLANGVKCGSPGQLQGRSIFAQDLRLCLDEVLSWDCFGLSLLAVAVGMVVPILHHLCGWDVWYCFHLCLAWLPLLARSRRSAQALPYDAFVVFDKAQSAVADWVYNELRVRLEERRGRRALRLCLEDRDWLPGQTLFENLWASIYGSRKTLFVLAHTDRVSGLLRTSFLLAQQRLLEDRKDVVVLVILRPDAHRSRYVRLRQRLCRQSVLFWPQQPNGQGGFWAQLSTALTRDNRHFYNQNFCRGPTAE


Assays:
murine TLR9 = biological target: T1, murine TLR9; assay: IL-8 production by ELISA in 293 cells transfected with murine TLR9; assay type: cell-based; settings: 293 cells transiently transfected with mTLR9, stimulated with 1.0 μM CpG-ODN 1668; 48 h
Excerpt: Human fibroblast 293 cells were transiently transfected with mTLR9 and the NF-κB-luc construct (FIG. 2). Similar data was obtained for IL-8 production (not shown). Thus expression of TLR9 (human or mouse) in 293 cells results in a gain of function for CpG-DNA stimulation similar to hTLR4 reconstitution of LPS responses.
To generate stable clones expressing human TLR9, murine TLR9, or either TLR9 with the NF-κB-luc reporter plasmid, 293 cells were transfected in 10 cm plates (2×10^6 cells/plate) with 16 μg of DNA and selected with 0.7 mg/ml G418 (PAA Laboratories GmbH, Cölbe, Germany). The clones were also screened for IL-8 production or NF-κB-luciferase activity after stimulation with ODN. Four different types of clones were generated. • 293-hTLR9-luc: expressing human TLR9 and 6-fold NF-κB-luciferase reporter • 293-mTLR9-luc: expressing murine TLR9 and 6-fold NF-κB-luciferase reporter • 293-hTLR9: expressing human TLR9 • 293-mTLR9: expressing murine TLR9
It has been hypothesized that in order for DNA to enter the endosomal/lysosomal compartment a non-CpG dependent uptake receptor may be required. 293 cells were transiently transfected with mTLR9 treated with either medium only or 1.0 μM CpG-ODN 1668 (FIG. 15). […] IL-8 production was monitored after 48 h by ELISA.

TLR9 = assay: Expression of TLR9; assay type: cell-based
Excerpt: The invention also embraces agents which bind selectively to certain regulatory sequences associated with the murine TLR9 nucleic acid molecules described herein. The agents include polypeptides which bind to transcription and translation regulatory sequences of murine TLR9, and antisense nucleic acids, both of which are described in greater detail below. The agents can inhibit or increase murine TLR9 expression, as well as signaling activity (antagonists and agonists, respectively). Agents which bind selectively to regulatory sequences associated with the murine TLR9 nucleic acid molecules can be identified using methods familiar to those of skill in the art. For example, a promoter region including at least 100, 200, 300, 400, 500, or more nucleotides upstream (5′) of the coding region of murine TLR9 can be identified by isolating, from appropriate genomic DNA, such nucleotide sequences using the sequences of SEQ ID NO:1 or SEQ ID NO:2 as primers or as probes, and then inserting the promoter region DNA into an appropriate expression vector so as to control the expression of TLR9 or some other reporter gene, introducing the TLR9 promoter vector into an appropriate host cell, and screening for TLR9 or reporter expression by those cells following their incubation in the presence and absence of various test agents. […]

Molecule | antagonism of activation (IL-8 production) (murine TLR9) | expression of TLR9 (TLR9)
5′-CTCCTAGTGGGGGTGTCCTAT-3′ (listed as DNA, chemistry not given here) [PZ2] | in a dose-dependent manner, was able to antagonize the activation | –
IL-4: the cytokine IL-4 (protein, UniProt P05112 25-153, looked up) Interleukin-4: HKCDITLQEIIKTLNSLTEQKTLCTELTVTDIFAASKNTTEKETFCRAATVLRQFYSHHEKDTRCLGATAQQFHRHKQLIRFLKRLDRNLWGLAGLNSCPVKEANQSTLENFLERLKTIMREKYSKCSS | – | inhibits
